{"source": "paper PMC5218480", "about": "(PLoS ONE, 2017)", "system": "MV-4-11 cells", "assay": "Gene expression microarray analysis (Affymetrix PrimeView) and GSEA", "type": "cell-based, human", "set-up": "RFU PODN (11730768_x_at) / Fold change /veh PODN (11730768_x_at) / RFU LINC00158 (11744669_a_at) / Fold change /veh LINC00158 (11744669_a_at) / RFU DUSP10 (11751237_a_at) / Fold change /veh DUSP10 (11751237_a_at) / RFU ID3 (11757404_x_at) / Fold change /veh ID3 (11757404_x_at) / RFU PLEKHG5 (11737974_s_at) / Fold change /veh PLEKHG5 (11737974_s_at) / RFU LRRC4B (11730491_at) / Fold change /veh LRRC4B (11730491_at) / RFU GIMAP4 (11747438_a_at) / Fold change /veh GIMAP4 (11747438_a_at) / RFU KRT8 (11758183_x_at) / Fold change /veh KRT8 (11758183_x_at) / RFU CNN1 (11734310_a_at) / Fold change /veh CNN1 (11734310_a_at) / RFU VPS37D (11726825_at) / Fold change /veh VPS37D (11726825_at) / RFU C10orf10 (11716522_x_at) / Fold change /veh C10orf10 (11716522_x_at) / RFU KIR2DL2 /// KIR2DL4 /// KIR2DL5A /// KIR2DL5B /// KIR2DS1 /// KIR2DS2 /// KIR2DS3 /// KIR2DS4 /// KIR3DL3 /// KIR3DL3 /// KIR3DS1 (11738374_at) / Fold change /veh KIR2DL2 /// KIR2DL4 /// KIR2DL5A /// KIR2DL5B /// KIR2DS1 /// KIR2DS2 /// KIR2DS3 /// KIR2DS4 /// KIR3DL3 /// KIR3DL3 /// KIR3DS1 (11738374_at) / RFU C1QL1 (11718748_at) / Fold change /veh C1QL1 (11718748_at) / RFU TMPRSS4 (11747572_a_at) / Fold change /veh TMPRSS4 (11747572_a_at) / RFU HAMP (11756126_x_at) / Fold change /veh HAMP (11756126_x_at) / RFU RNFT2 (11725882_a_at) / Fold change /veh RNFT2 (11725882_a_at) / RFU NR4A2 (11747474_a_at) / Fold change /veh NR4A2 (11747474_a_at) / RFU ABCC12 (11746883_a_at) / Fold change /veh ABCC12 (11746883_a_at) / RFU TMEM136 (11760407_x_at) / Fold change /veh TMEM136 (11760407_x_at) / RFU CLDN22 /// WWC2 (11732394_at) / Fold change /veh CLDN22 /// WWC2 (11732394_at) / RFU HLA-DPB1 (11760878_x_at) / Fold change /veh HLA-DPB1 (11760878_x_at) / RFU SPINT1 (11716480_a_at) / Fold change /veh SPINT1 (11716480_a_at) / RFU GAP43 (11754022_s_at) / Fold change /veh GAP43 (11754022_s_at) / RFU A4GNT (11735810_at) / Fold change /veh A4GNT (11735810_at) / RFU PRB3 (11715151_x_at) / Fold change /veh PRB3 (11715151_x_at) / RFU TUBB4B (11761932_at) / Fold change /veh TUBB4B (11761932_at) / RFU CAPN14 (11732068_a_at) / Fold change /veh CAPN14 (11732068_a_at) / RFU TMCC2 (11721928_a_at) / Fold change /veh TMCC2 (11721928_a_at) / RFU IRGQ (11745062_a_at) / Fold change /veh IRGQ (11745062_a_at) / RFU FAM174B (11720279_a_at) / Fold change /veh FAM174B (11720279_a_at) / RFU TMPRSS4 (11748680_a_at) / Fold change /veh TMPRSS4 (11748680_a_at) / RFU FAM212B (11763350_a_at) / Fold change /veh FAM212B (11763350_a_at) / RFU PLEKHG5 (11743358_a_at) / Fold change /veh PLEKHG5 (11743358_a_at) / RFU ZSCAN30 (11745921_a_at) / Fold change /veh ZSCAN30 (11745921_a_at) / RFU CMKLR1 (11741424_a_at) / Fold change /veh CMKLR1 (11741424_a_at) / RFU LOC101060620 /// MAPK8IP1 (11723275_at) / Fold change /veh LOC101060620 /// MAPK8IP1 (11723275_at) / RFU SPTSSB (11747773_x_at) / Fold change /veh SPTSSB (11747773_x_at) / RFU PRSS12 (11739890_at) / Fold change /veh PRSS12 (11739890_at) / RFU BIN1 (11741810_x_at) / Fold change /veh BIN1 (11741810_x_at) / RFU WNT11 (11732464_a_at) / Fold change /veh WNT11 (11732464_a_at) / RFU C10orf10 (11716521_a_at) / Fold change /veh C10orf10 (11716521_a_at) / RFU C5orf56 (11738089_at) / Fold change /veh C5orf56 (11738089_at) / RFU CYB561 (11721691_x_at) / Fold change /veh CYB561 (11721691_x_at) / RFU ANKRD19P (11752326_a_at) / Fold change /veh ANKRD19P (11752326_a_at) / RFU OR2T12 /// OR2T33 /// OR2T8 (11738714_s_at) / Fold change /veh OR2T12 /// OR2T33 /// OR2T8 (11738714_s_at) / RFU VCAN (11748164_a_at) / Fold change /veh VCAN (11748164_a_at) / RFU JSRP1 (11732532_at) / Fold change /veh JSRP1 (11732532_at) / RFU KRTAP10-11 (11738290_x_at) / Fold change /veh KRTAP10-11 (11738290_x_at) / RFU MYO3A (11730013_a_at) / Fold change /veh MYO3A (11730013_a_at) / RFU EBF3 (11725865_a_at) / Fold change /veh EBF3 (11725865_a_at) / RFU CAMK2N1 (11719241_x_at) / Fold change /veh CAMK2N1 (11719241_x_at) / RFU C5orf56 (11738088_a_at) / Fold change /veh C5orf56 (11738088_a_at) / RFU OLFML3 (11715873_a_at) / Fold change /veh OLFML3 (11715873_a_at) / RFU LOC100653217 /// NTM (11731650_a_at) / Fold change /veh LOC100653217 /// NTM (11731650_a_at) / RFU MAPK11 (11762145_a_at) / Fold change /veh MAPK11 (11762145_a_at) / RFU FIZ1 (11724087_x_at) / Fold change /veh FIZ1 (11724087_x_at) / RFU OASL (11726364_x_at) / Fold change /veh OASL (11726364_x_at) / RFU SOX15 (11748057_x_at) / Fold change /veh SOX15 (11748057_x_at) / RFU CD79A (11719716_a_at) / Fold change /veh CD79A (11719716_a_at) / RFU HIST1H1D (11736915_at) / Fold change /veh HIST1H1D (11736915_at) / RFU CASKIN2 (11723855_a_at) / Fold change /veh CASKIN2 (11723855_a_at) / RFU LOC730098 (11760151_x_at) / Fold change /veh LOC730098 (11760151_x_at) / RFU OR4N2 (11742367_at) / Fold change /veh OR4N2 (11742367_at) / RFU PRRT2 (11749266_a_at) / Fold change /veh PRRT2 (11749266_a_at) / RFU SNX32 (11753110_a_at) / Fold change /veh SNX32 (11753110_a_at) / RFU CDHR5 (11726645_a_at) / Fold change /veh CDHR5 (11726645_a_at) / RFU RCAN1 (11760418_a_at) / Fold change /veh RCAN1 (11760418_a_at) / RFU FAM167A (11723789_a_at) / Fold change /veh FAM167A (11723789_a_at) / RFU FAM26E (11764081_at) / Fold change /veh FAM26E (11764081_at) / RFU ISYNA1 (11749810_s_at) / Fold change /veh ISYNA1 (11749810_s_at) / RFU ACY1 (11761880_at) / Fold change /veh ACY1 (11761880_at) / RFU 11764098_at / Fold change /veh 11764098_at / RFU SAMD14 (11745864_x_at) / Fold change /veh SAMD14 (11745864_x_at) / RFU NPB (11741838_a_at) / Fold change /veh NPB (11741838_a_at) / RFU TMPRSS6 (11731388_a_at) / Fold change /veh TMPRSS6 (11731388_a_at) / RFU KRTAP10-2 (11738614_at) / Fold change /veh KRTAP10-2 (11738614_at) / RFU ARHGAP8 /// PRR5-ARHGAP8 (11727945_x_at) / Fold change /veh ARHGAP8 /// PRR5-ARHGAP8 (11727945_x_at) / RFU KRTAP5-7 /// NADSYN1 (11734609_at) / Fold change /veh KRTAP5-7 /// NADSYN1 (11734609_at) / RFU RASL12 (11751679_a_at) / Fold change /veh RASL12 (11751679_a_at) / RFU CDKN2B (11736163_a_at) / Fold change /veh CDKN2B (11736163_a_at) / RFU PRF1 (11729649_at) / Fold change /veh PRF1 (11729649_at) / RFU, ZNF638 /// ZNF638-IT1 / Fold change vs veh, ZNF638 /// ZNF638-IT1 / RFU, PANK3 / Fold change vs veh, PANK3 / RFU, SH3YL1 / Fold change vs veh, SH3YL1 / RFU, ZEB2 / Fold change vs veh, ZEB2 / RFU, NRIP1 / Fold change vs veh, NRIP1 / RFU, PTTG1IP / Fold change vs veh, PTTG1IP / RFU, CAPN2 / Fold change vs veh, CAPN2 / RFU, MED14 / Fold change vs veh, MED14 / RFU, SNORA58 / Fold change vs veh, SNORA58 / RFU, C1orf63 / Fold change vs veh, C1orf63 / RFU, LRRFIP1 / Fold change vs veh, LRRFIP1 / RFU, NDUFAF7 / Fold change vs veh, NDUFAF7 / RFU, SLC12A2 / Fold change vs veh, SLC12A2 / RFU, IBTK / Fold change vs veh, IBTK / RFU, ESF1 / Fold change vs veh, ESF1 / Fold change vs veh, TMEM50B / RFU, TAOK1 / Fold change vs veh, TAOK1 / RFU, ACBD3 / Fold change vs veh, ACBD3 / RFU, TMA16 / Fold change vs veh, TMA16 / RFU, RWDD3 / Fold change vs veh, RWDD3 / RFU, BCAT1 / Fold change vs veh, BCAT1 / RFU, EDEM3 / Fold change vs veh, EDEM3 / RFU, TMEM33 / Fold change vs veh, TMEM33 / RFU, WDR75 / Fold change vs veh, WDR75 / RFU, AHCTF1 / Fold change vs veh, AHCTF1 / RFU, TFRC / Fold change vs veh, TFRC / RFU, ZDHHC17 / Fold change vs veh, ZDHHC17 / RFU, NOM1 / Fold change vs veh, NOM1 / RFU, ARL8B / Fold change vs veh, ARL8B / RFU, ZBTB11 / Fold change vs veh, ZBTB11 / RFU, TAMM41 / Fold change vs veh, TAMM41 / RFU, KIAA1704 /// LOC100996395 / Fold change vs veh, KIAA1704 /// LOC100996395 / RFU, ING1 / Fold change vs veh, ING1 / RFU, TRMT61B / Fold change vs veh, TRMT61B / RFU, FUBP3 / Fold change vs veh, FUBP3 / RFU, TP53 / Fold change vs veh, TP53 / RFU, TNKS2 / Fold change vs veh, TNKS2 / RFU, ZFP14 / Fold change vs veh, ZFP14 / RFU, ACTR2 / Fold change vs veh, ACTR2 / RFU, PPP3R1 / Fold change vs veh, PPP3R1 / RFU, PIK3R1 / Fold change vs veh, PIK3R1 / RFU, HNRNPA1 / Fold change vs veh, HNRNPA1 / RFU, RNF170 / Fold change vs veh, RNF170 / RFU, ZNF28 / Fold change vs veh, ZNF28 / RFU, RNGTT / Fold change vs veh, RNGTT / RFU, OGT / Fold change vs veh, OGT / RFU, BRD1 / Fold change vs veh, BRD1 / RFU, MARS / Fold change vs veh, MARS / RFU, ZNF655 / Fold change vs veh, ZNF655 / RFU, FAHD1 / Fold change vs veh, FAHD1 / RFU, BDP1 / Fold change vs veh, BDP1 / RFU, LRRCC1 / Fold change vs veh, LRRCC1 / RFU, ARID1A / Fold change vs veh, ARID1A / RFU, ZNF146 / Fold change vs veh, ZNF146 / RFU, ZNF330 / Fold change vs veh, ZNF330 / RFU, GPN3 / Fold change vs veh, GPN3 / RFU, C9orf123 / Fold change vs veh, C9orf123 / RFU, N4BP2L2 / Fold change vs veh, N4BP2L2 / RFU, ARFIP1 / Fold change vs veh, ARFIP1 / RFU, FAM179B / Fold change vs veh, FAM179B / RFU, BCL10 / Fold change vs veh, BCL10 / RFU, UHRF1BP1L / Fold change vs veh, UHRF1BP1L / RFU, BET1 / Fold change vs veh, BET1 / RFU, CNOT2 / Fold change vs veh, CNOT2 / RFU, ZNF268 / Fold change vs veh, ZNF268 / Fold change vs veh, ZNF507 / RFU, DGCR2 / Fold change vs veh, DGCR2 / RFU, WDSUB1 / Fold change vs veh, WDSUB1 / Fold change vs veh, HSP90B1 /// MIR3652 / RFU, ADSS / Fold change vs veh, ADSS / RFU, GK / Fold change vs veh, GK / RFU, ZNF148 / Fold change vs veh, ZNF148 / RFU, TAF9 / Fold change vs veh, TAF9 / RFU, SLC1A5 / Fold change vs veh, SLC1A5 / RFU, SLMO2 / Fold change vs veh, SLMO2 / RFU, ABCC4 / Fold change vs veh, ABCC4 / RFU, LOC101060439 /// RAP1B / Fold change vs veh, LOC101060439 /// RAP1B / RFU, RFX7 / Fold change vs veh, RFX7 / RFU, GTPBP10 / Fold change vs veh, GTPBP10 / RFU, CNEP1R1 / Fold change vs veh, CNEP1R1 / RFU, BIVM-ERCC5 /// ERCC5 / Fold change vs veh, BIVM-ERCC5 /// ERCC5 / RFU, ILF3 / Fold change vs veh, ILF3 / RFU 11762660_at / Fold change /veh 11762660_at / RFU VCAN (11757783_s_at) / Fold change /veh VCAN (11757783_s_at) / RFU DDX43 (11728927_at) / Fold change /veh DDX43 (11728927_at) / RFU KRT8 (11758188_x_at) / Fold change /veh KRT8 (11758188_x_at) / RFU NKD1 (11759106_at) / Fold change /veh NKD1 (11759106_at) / RFU SRD5A1 (11742802_a_at) / Fold change /veh SRD5A1 (11742802_a_at) / RFU TPSAB1 /// TPSB2 (11721975_s_at) / Fold change /veh TPSAB1 /// TPSB2 (11721975_s_at) / RFU GSTM3 (11746129_a_at) / Fold change /veh GSTM3 (11746129_a_at) / RFU IL23R (11737362_x_at) / Fold change /veh IL23R (11737362_x_at) / RFU TMEM51 (11727254_a_at) / Fold change /veh TMEM51 (11727254_a_at) / RFU PIWIL2 (11732686_x_at) / Fold change /veh PIWIL2 (11732686_x_at) / RFU ORM1 (11744905_x_at) / Fold change /veh ORM1 (11744905_x_at) / RFU CCDC152 (11743942_at) / Fold change /veh CCDC152 (11743942_at) / RFU ECM1 (11717891_a_at) / Fold change /veh ECM1 (11717891_a_at) / RFU IL23R (11748794_a_at) / Fold change /veh IL23R (11748794_a_at) / RFU TNFAIP8L3 (11732012_x_at) / Fold change /veh TNFAIP8L3 (11732012_x_at) / RFU MBOAT4 (11741988_at) / Fold change /veh MBOAT4 (11741988_at) / RFU 11764193_at / Fold change /veh 11764193_at / RFU TMEM53 (11763286_at) / Fold change /veh TMEM53 (11763286_at) / RFU MAGEB2 (11727129_at) / Fold change /veh MAGEB2 (11727129_at) / RFU TMEM200A (11744735_a_at) / Fold change /veh TMEM200A (11744735_a_at) / RFU CCDC152 (11751479_a_at) / Fold change /veh CCDC152 (11751479_a_at) / RFU FAM211A (11726209_a_at) / Fold change /veh FAM211A (11726209_a_at) / RFU RGS16 (11746705_a_at) / Fold change /veh RGS16 (11746705_a_at) / RFU VCAN (11755009_s_at) / Fold change /veh VCAN (11755009_s_at) / RFU RHOB (11743442_s_at) / Fold change /veh RHOB (11743442_s_at) / RFU RGS16 (11720943_a_at) / Fold change /veh RGS16 (11720943_a_at) / RFU RGS16 (11720944_at) / Fold change /veh RGS16 (11720944_at) / RFU, VPS4B / Fold change vs veh, VPS4B / RFU, CREB1 / Fold change vs veh, CREB1 / RFU, DNAJC13 / Fold change vs veh, DNAJC13 / RFU, GNAQ / Fold change vs veh, GNAQ / RFU, CDK5R1 / Fold change vs veh, CDK5R1 / RFU, ZRANB3 / Fold change vs veh, ZRANB3 / RFU, CUL4A / Fold change vs veh, CUL4A / RFU, CCNY / Fold change vs veh, CCNY / RFU, UFL1 / Fold change vs veh, UFL1 / RFU, COG3 / Fold change vs veh, COG3 / RFU, DIAPH2 / Fold change vs veh, DIAPH2 / RFU, SKA2 / Fold change vs veh, SKA2 / RFU, AFF3 / Fold change vs veh, AFF3 / RFU, LMF1 / Fold change vs veh, LMF1 / RFU, IPO11 / Fold change vs veh, IPO11 / RFU, DFFB / Fold change vs veh, DFFB / RFU, FOXP1 / Fold change vs veh, FOXP1 / RFU, CARD8 / Fold change vs veh, CARD8 / RFU, STRN3 / Fold change vs veh, STRN3 / RFU, ADK / Fold change vs veh, ADK / RFU, RASSF2 / Fold change vs veh, RASSF2 / RFU, WIPF1 / Fold change vs veh, WIPF1 / RFU, LARP1B / Fold change vs veh, LARP1B / RFU, RASA1 / Fold change vs veh, RASA1 / RFU, RB1 / Fold change vs veh, RB1 / RFU, PPFIA1 / Fold change vs veh, PPFIA1 / RFU, MAT2A / Fold change vs veh, MAT2A / RFU, CCT5 / Fold change vs veh, CCT5 / RFU, WDR92 / Fold change vs veh, WDR92 / RFU, CUX1 / Fold change vs veh, CUX1 / RFU, TTC7A / Fold change vs veh, TTC7A / RFU, TMEM135 / Fold change vs veh, TMEM135 / RFU, DEPTOR / Fold change vs veh, DEPTOR / RFU, CPM / Fold change vs veh, CPM / RFU, DNAJB6 / Fold change vs veh, DNAJB6 / RFU, CACNA2D3 / Fold change vs veh, CACNA2D3 / RFU, DTX4 / Fold change vs veh, DTX4 / RFU, TFCP2 / Fold change vs veh, TFCP2 / RFU, GMCL1 /// GMCL1P1 / Fold change vs veh, GMCL1 /// GMCL1P1 / RFU, AEBP2 / Fold change vs veh, AEBP2 / RFU, SNHG1 /// SNORD22 /// SNORD25 /// SNORD26 /// SNORD27 /// SNORD28 /// SNORD29 /// SNORD31 / Fold change vs veh, SNHG1 /// SNORD22 /// SNORD25 /// SNORD26 /// SNORD27 /// SNORD28 /// SNORD29 /// SNORD31 / Fold change (Aza/veh), C12orf56 (ProbeSet 11735607_a_at) / Fold change (ACY-1035/veh), C12orf56 (ProbeSet 11735607_a_at) / Fold change (Aza/veh), FGFR1OP (ProbeSet 11751329_s_at) / Fold change (ACY-1035/veh), FGFR1OP (ProbeSet 11751329_s_at) / Fold change (Aza/veh), VPS36 (ProbeSet 11739960_a_at) / Fold change (ACY-1035/veh), VPS36 (ProbeSet 11739960_a_at) / RFU SYPL1 (11715823_x_at) / Fold change /veh SYPL1 (11715823_x_at) / RFU IGFBP7 (11715501_s_at) / Fold change /veh IGFBP7 (11715501_s_at) / RFU REEP3 (11722064_at) / Fold change /veh REEP3 (11722064_at) / RFU IGLL1 (11728026_x_at) / Fold change /veh IGLL1 (11728026_x_at): dose or concentration left out as unconfirmed", "conditions": "ProbeSet 11731461_x_at; LIST D", "data": [{"compound": "Nc1ccc(-c2cccs2)cc1NC(=O)c1ccc2c(c1)cc(C1CC1)n2CCN1CCOCC1", "note": "[ACY-1035]", "values": [{"measurement": "RFU, CPM", "value": 131.54, "unit": "RFU"}]}]}
